Columns and labels:
L929 cells = assay: MTT cytotoxicity assay, L929 healthy cells; assay type: cell-based; conditions: healthy mouse fibroblast
Method: (§1) Cell culture experiments were performed to assess the antiproliferative efficacy of the synthesized benzothiazole compounds on the MCF7 and MDA‐MB‐231 cell lines. The anticancer activity of the compounds were compared with the L929 healthy cell line as a control. Doxorubicin and cisplatin, the anticancer agents, were employed as positive controls.
(§2) Human epithelial breast adenocarcinoma (MDA‐MB‐231) (ATCC® HTB‐26™), human epithelial breast adenocarcinoma (MCF7) (ATCC® HTB‐22™), and healthy mouse fibroblast (L929) (ATCC® CRL‐10317™) cells were obtained commercially from ATCC.
(§3) MDA‐MB‐231, MCF7, and L929 cells were seeded in 25 cm² flasks. DMEM medium containing 10% FBS, 1% Penicillin‐Streptomycin, L‐Glutamine, and NaHCO₃ was used as the cell culture medium. The cells were incubated and propagated at 37°C in an environment containing 5% CO₂ and 95% humidity. When the cells reached 80%–90% confluency, they were passaged to different media. During passaging, DMEM was first withdrawn, and the cells were washed with PBS to remove FBS from the medium. Then, Trypsin‐EDTA solution was added to the flask to detach the cells, and the flask was kept in a CO₂ incubator for approximately 1 min. To stop the activity of Trypsin‐EDTA medium containing FBS was added to the flask. The cells were collected into a Falcon tube and centrifuged at 800 rpm for 5 min at room temperature. The supernatant was discarded, and the cell pellet was resuspended in the medium and seeded on cell culture plates according to the experimental protocol.
(§4) A total of 2 mg of each compound was dissolved in an appropriate amount of dimethyl sulfoxide (DMSO) to prepare 10 mM stock solutions. These stock solutions were then diluted to create 100 μM intermediate stocks and stored at −80°C. Commercially purchased cisplatin and doxorubicin HCl (Sigma, St. Louis, MO) were dissolved in DMSO following the manufacturer's protocol to create 20 mM stock solutions. These standard drug molecules were diluted from the stock solution, divided into 100 μM aliquots, and stored at –80°C until use.
(§5) MTT analysis was performed to evaluate the in vitro cytotoxicity of the synthesized compounds against different cancer cell lines. Cells used in the cytotoxicity experiments were cultured in DMEM medium supplemented with 10% FBS. Cells suspended in the medium (2 × 10⁴ cells/mL) were seeded into 96‐well culture plates and incubated at 37°C in a 5% CO₂ incubator. After 12 h, compounds were added at different doses (2 µL) to cells (2 × 10⁴) in the 96‐well plates and incubated at 37°C for 24 h.
(§6) The incubated cells were then treated with 20 µL of MTT solution and incubated at 37°C for 4 h. The supernatant was carefully removed from each well, and 100 µL of DMSO was added to each well to dissolve the formazan crystals formed by the cellular reduction of MTT. The absorbance was measured at 570 nm using an ELISA reader. […] At the end of the experiment, the device calculated the IC50 value for each well, and the average values were recorded. Each experiment was performed in at least three replicates.

MDA‐MB‐231 cells = assay: MTT antiproliferative assay, MDA-MB-231; assay type: cell-based, human; conditions: for IC50: MTT, 24 h incubation; for Selectivity MDA‐MB‐231: Selectivity index = L929 IC50 / MDA‐MB‐231 IC50 (24 h)
Method: as §1, §2, §3, §4, §5, §6

MCF7 cells = assay: MTT antiproliferative assay, MCF7; assay type: cell-based, human; conditions: for IC50: MTT, 24 h incubation; for Selectivity MCF7: Selectivity index = L929 IC50 / MCF7 IC50 (24 h)
Method: as §1, §2, §3, §4, §5, §6

p38 MAPKα = assay: p38 MAPK alpha ELISA, total level in treated MCF7 cells normalised to total protein (BCA); assay type: cell-based, human; conditions: MCF7 cells exposed to compound
Excerpt: To account for variations in protein quantities among the cells. The total protein concentrations in cells subjected to the drugs were quantified. The p38 MAPKα levels were adjusted by dividing by the protein levels, yielding results represented as ng/μg protein (Table 3).
A bicinchoninic acid (BCA) protein assay kit (catalog no. 23227) was obtained from Thermo‐Fisher Scientific (IL, USA) and used to detect total protein by the BCA assay. In this assay, the reaction between BCA, Cu²⁺ ions, and Cu⁺ ions form a purple complex in alkaline conditions. The absorbance of this complex was measured at 562 nm, and the results were expressed in mg/mL.
The p38 MAPK alpha ELISA Kit (ab221012; Abcam, Cambridge, MA) was used to measure the levels of […] in cell lysates according to the manufacturer's instructions. The SimpleStep Enzyme‐Linked Immunosorbent Assay (ELISA) kit was designed to assess total p38 MAPKα protein semi‐quantitatively. The SimpleStep ELISA uses a reporter‐conjugated detection antibody, and an affinity‐tag labeled capture antibody to immunocapture the sample analyte in solution. An anti‐tag antibody coating the well immobilizes the entire complex (capture antibody, analyte, and detection antibody).
Samples or controls were added to the wells, followed by the Antibody Cocktail to complete the test. After incubation, the wells were washed to remove unbound material. […] The levels of MAPK were normalized to total protein content.

IC50 (MDA‐MB‐231 cells) | IC50 (MCF7 cells) | IC50 (MDA‐MB‐231 cells; Homo sapiens, MDA-MB-231) | IC50 (MCF7 cells; Homo sapiens, MCF7) | Compound | IC50 (L929 cells; 24 h incubation) | Selectivity MDA‐MB‐231 (MDA‐MB‐231 cells) | Selectivity MCF7 (MCF7 cells) | IC50 (L929 cells; L929, 24 h incubation) | Total p38α MAPK levels (p38 MAPKα)
 |  | 15 ± 0.26 µM | 21.1 ± 0.46 µM | O=C(NCc1nc2ccccc2s1)c1ccc(F)cc1 [Compound 12, N‐(Benzo[d]thiazol‐2‐ylmethyl)‐4‐fluorobenzamide] |  | 2.869 | 2.038 | 43 ± 0.56 µM | 
10 ± 0.43 µM | 12.9 ± 0.86 µM |  |  | O=C(NCc1nc2ccccc2s1)c1ccc(C(F)(F)F)cc1 [Compound 13, N‐(Benzo[d]thiazol‐2‐ylmethyl)‐4‐(trifluoromethyl) benzamide] | 32.8 ± 0.43 µM | 3.273 | 2.534 |  | 
 |  | 20.25 ± 0.19 µM | 14.1 ± 0.95 µM | O=C(NCc1nc2ccccc2s1)c1ccc(Br)cc1 [Compound 16, N‐(Benzo[d]thiazol‐2‐ylmethyl)‐4‐bromobenzamide] |  | 1.766 | 2.536 | 35.8 ± 0.46 µM | 
16.07 ± 0.12 µM | 14.7 ± 0.15 µM |  |  | COc1ccc(OC)c(CC(=O)Nc2nc3ccccc3s2)c1 [Compound 20, N‐(Benzo[d]thiazol‐2‐yl)‐2‐(2,5‐dimethoxyphenyl) acetamide] | 87.8 ± 1.29 µM | 5.464 | 5.977 |  | 
12.9 ± 0.19 µM | 12.7 ± 0.18 µM |  |  | COc1ccc(CC(=O)Nc2nc3ccccc3s2)cc1 [Compound 24, N‐(Benzo[d]thiazol‐2‐yl)‐2‐(4‐methoxyphenyl) acetamide] | 81.5 ± 1.07 µM | 6.306 | 6.440 |  | 
14.4 ± 0.18 µM | 13.21 ± 0.03 µM |  |  | O=C(Cc1cccs1)Nc1nc2ccccc2s1 [Compound 25, N‐(Benzo[d]thiazol‐2‐yl)‐2‐(thiophen‐2‐yl) acetamide] | 135 ± 1.83 µM | 9.360 | 10.189 |  | 
15.8 ± 0.52 µM | 13.5 ± 0.35 µM |  |  | COc1cccc(CC(=O)NCc2nc3ccccc3s2)c1 [Compound 26, N‐(Benzo[d]thiazol‐2‐ylmethyl)‐2‐(3‐methoxyphenyl) acetamide] | 27.7 ± 0.78 µM | 1.753 | 2.047 |  | 
14.7 ± 0.63 µM | 12.3 ± 0.96 µM |  |  | O=C(Cc1ccc(Cl)cc1)NCc1nc2ccccc2s1 [Compound 27, N‐(Benzo[d]thiazol‐2‐ylmethyl)‐2‐(4‐chlorophenyl) acetamide] | 32.9 ± 0.35 µM | 2.243 | 2.666 |  | 
 |  | 9.27 ± 0.21 µM | 5.8 ± 0.15 µM | COc1cccc2c1C(=O)c1c(O)c3c(c(O)c1C2=O)C[C@@](O)(C(=O)CO)C[C@@H]3O[C@H]1C[C@H](N)[C@H](O)[C@H](C)O1 [Doxorubicin, reference compound] |  | 2.584 | 4.131 | 24 ± 1.07 µM | 

Continued, molecule first:

Compound | IC50 (MDA‐MB‐231 cells) | IC50 (MCF7 cells) | IC50 (MDA‐MB‐231 cells; Homo sapiens, MDA-MB-231) | IC50 (MCF7 cells; Homo sapiens, MCF7) | IC50 (L929 cells; 24 h incubation) | Selectivity MDA‐MB‐231 (MDA‐MB‐231 cells) | Selectivity MCF7 (MCF7 cells) | IC50 (L929 cells; L929, 24 h incubation) | Total p38α MAPK levels (p38 MAPKα)
N.N.[Cl][Pt][Cl] [Cisplatin, reference compound] | 30.1 ± 1.39 µM | 7.03 ± 0.04 µM |  |  | 36 ± 2.01 µM | 1.195 | 5.118 |  | 
COc1ccc(C(=O)Nc2nc3ccccc3s2)cc1 [Compound 1, N‐(Benzo[d]thiazol‐2‐yl)‐4‐methoxybenzamide] |  |  | 15.8 ± 0.75 µM | 11 ± 0.27 µM |  | 1.549 | 2.227 | 24.5 ± 0.56 µM | 7.367 ± 1.291 ng/μg protein
O=C(Nc1nc2ccccc2s1)c1ccc(F)cc1 [Compound 2, N‐(Benzo[d]thiazol‐2‐yl)‐4‐fluorobenzamide] |  |  | 17 ± 0.67 µM | 11.2 ± 0.49 µM |  | 1.239 | 1.884 | 21.02 ± 0.21 µM | 3.879 ± 0.868 ng/μg protein
O=C(Nc1nc2ccccc2s1)c1cccs1 [Compound 3, N‐(Benzo[d]thiazol‐2‐yl) thiophene‐2‐carboxamide] |  |  | 15 ± 0.57 µM | 16 ± 0.46 µM |  | 2.345 | 2.209 | 35.2 ± 0.95 µM | 0.43 ± 0.005 ng/μg protein
O=C(Nc1nc2ccccc2s1)c1ccco1 [Compound 4, N‐(Benzo[d]thiazol‐2‐yl) furan‐2‐carboxamide] |  |  | 19.9 ± 0.36 µM | 11.08 ± 0.08 µM |  | 1.305 | 2.349 | 26.03 ± 0.13 µM | 8.529 ± 0.9 ng/μg protein
O=C(Nc1nc2ccccc2s1)c1ccc(Br)cc1 [Compound 5, N‐(Benzo[d]thiazol‐2‐yl)‐4‐bromobenzamide] |  |  | 15.3 ± 0.32 µM | 12.9 ± 0.37 µM |  | 2.033 | 2.399 | 31 ± 0.66 µM | 
O=C(Nc1nc2ccccc2s1)c1ccc(C(F)(F)F)cc1 [Compound 6, N‐(Benzo[d]thiazol‐2‐yl)‐4‐(trifluoromethyl) benzamide] | 10.9 ± 0.28 µM | 13.5 ± 0.37 µM |  |  | 23.9 ± 0.32 µM | 2.197 | 1.772 |  | 
O=C(Nc1nc2ccccc2s1)c1ccccc1 [Compound 7, N‐(Benzo[d]thiazol‐2‐yl) benzamide] |  |  | 11.8 ± 0.57 µM | 12.4 ± 0.97 µM |  | 2.284 | 2.171 | 26.9 ± 0.97 µM | 
O=C(NCc1nc2ccccc2s1)c1ccc(Cl)cc1 [Compound 11, N‐(Benzo[d]thiazol‐2‐ylmethyl)‐4‐chlorobenzamide] |  |  | 10 ± 0.36 µM | 15.6 ± 0.65 µM |  | 3.583 | 2.304 | 35.87 ± 0.23 µM | 

Source: PMC11975549, “Development of Potent Type V MAPK Inhibitors: Design, Synthesis, and Biological Evaluation of Benzothiazole Derivatives Targeting p38α MAPK in Breast Cancer Cells” (Archiv Der Pharmazie, 2025)
